Experiments:
CA1 neurons [1] = test: Whole-cell current clamp recording of membrane potential; type: cell-based, mouse
Source text: Next, whole-cell current clamp recordings were used to check the effect of SYR on the membrane potential of CA1 neurons.

hippocampal CA1 region = test: Picrotoxin-induced epilepsy activity in intact hippocampal slices; type: cell-based, mouse; settings: picrotoxin 50 μM
Description: Selective inhibition of excitatory synaptic transmission rather than inhibitory synapse transmission means that SYR may change the balance between synapse excitation and inhibition in neurons. We checked whether this synapse regulation might inhibit epilepsy pathogenic activity caused by excessive excitement of the neural network. To model an epilepsy pathogenic neuron network in experimental conditions (in vitro), the hippocampal slice was prepared while the CA3 region was left. During recording, ACSF containing picrotoxin (50 μM) was perfused in intact hippocampal slices. […] Continuous picrotoxin perfusion (>20 min) discharged an epilepsy pathogenic excitation wave. This wave was characterized by a three to seven population spikes (PS) waveform of a decreasing amplitude (FIG. 7C).

CA1 neurons [2] = test: Miniature EPSC (mEPSC) recording in CA1 neurons; type: cell-based, mouse
Description: A miniature EPSC (mEPSC) was measured at −70 mV with a pipette solution. In this connection, the pipette solution contained 110 mM K-gluconate, 20 mM KCl, 8 mM NaCl, 10 mM HEPES, 0.5 mM QX-314-C1, 4 mM Mg-ATP, 0.3 mM Na-GTP and 0.5 mM EGTA. The solution had pH 7.25 and 290 mOsm/kg. Voluntary action potentials and IPSCs were blocked by TTX (1 μM) and picrotoxin (50 μM), respectively. For mIPSC recording, the K-gluconate in the pipette solution was replaced with the KCl having the same number of moles as the K-gluconate.
Next, the effect of SYR on miniature EPSC (mEPSC) in CA1 neurons was examined.

[3] = test system: CA1 neurons (inhibitory synaptic transmission); test: Evoked IPSC (eIPSC) recording in CA1 neurons; type: cell-based, mouse; settings: 100 μM
Source text: A stimulating electrode was placed on a radiating layer or a pyramidal cell layer near the target cell. […] […] During eEPSC or eIPSC recording, series resistance and seal resistance were continuously observed using short hyperpolarization pulses (−5 mV, 50 ms). When the resistance was changed by more than 20% during recording, the data was discarded.
SYR […] inhibitory synaptic transmission in CA1 neurons. […] There was no difference between the first eIPSC (t=−0.47, p>0.05) and the second eIPSC (t=−0.33, p>0.05) as measured before and after the application of SYR respectively.

Open field test = type: in vivo, mouse; settings: 10 mg/kg intraperitoneally, test 30 minutes after injection, 30-minute test
Description: All experiments were performed using male and female C57BL/6 mice of 4 to 6 weeks of age. An open field test was performed on male mice of 6 to 7 weeks. Animals were maintained with circulating 12/12-h day/night, while daytime starts at 07:00. Three or five animals were housed per one cage. Free available food and water were fed to the mice under specific pathogenic-microorganism free (SPF) conditions. The animal maintenance protocol and all experimental procedures were approved by the Institutional Animal Care and Use Committee (IACUC) of Seoul National University.
In an open field test, we video-recorded a movement of a 7 to 10-week-old mouse in a white plastic chamber (40×40×40 cm) in a darkened room for 30 minutes. Then, the moving distance of the mouse was measured using Ethovision XT (Noldus) software.
To determine the change of the activity of the mice by syringaresinol, we injected syringaresinol at a concentration of 10 mg/kg intraperitoneally into the mice. After 30 minutes, we measured the activity of the mice via an open field test. In this connection, control was injected with DMSO, a solvent used for dissolving syringaresinol. The open field test was conducted for 30 minutes. The activity of the mouse was checked at a 5-minute interval. Further, during the 30-minute test, the total movement distance of the mouse was measured.

[4] = test system: NMDAR-EPSC in CA1 neurons; test: NMDAR-mediated EPSC recording in CA1 neurons; type: cell-based, mouse; settings: −40 mV; NBQX and picrotoxin present; 100-ms interval
Description: (§1) To measure evoked excitatory post-synaptic current (eEPSC), the synapse potential was recorded using a patch pipette (3 to 4Mohm) via the membrane voltage clamp technique. The patch pipette contained a solution containing 100 mM CsMeSO4, 10 mM TEA-Cl, 20 mM CsCl, 8 mM NaCl, 10 mM HEPES, 0.5 mM QX-314-Cl, 4 mM Mg-ATP, 0.3 mM Na-GTP and 10 mM EGTA and having pH 7.25 and 290 mOsm/kg. EPSC was measured at a frequency of 0.05 Hz. The synaptic current was induced using a glass pipette (0.3 to 0.5 Mohm). GABAA receptor (GABAAR) antagonist picrotoxin (50 μM) was added to ACSF.

[5] = test system: AMPAR-EPSC in CA1 neurons; test: AMPAR-mediated EPSC whole-cell patch clamp in CA1 neurons; type: cell-based, mouse
Description: as §1
Thus, it was necessary to check the effect of SYR on desensitization of AMPAR in CA1 neurons. The whole-cell patch clamp technique was used in the presence of NMDAR blocker AP-5 and GABAA receptor blocker picrotoxin (PTX, 50 μM).
To confirm this assumption, we examined the effect of SYR on AMPAR-EPSC by injecting, as the actin-stabilizer, jasplakinolide (2 μM) into the patch pipette solution (FIG. 3H to FIG. 3J).
Furthermore, we checked whether post-synaptic loading of SYR regulates AMPAR-EPSC. We measured AMPAR-EPSC for 25 minutes immediately after cell membrane-punching using a K+-based pipette solution. […] If the post-synaptic loading of SYR affects AMPAR-EPSC, gradual diffusion of SYR from the pipette solution should inhibit AMPAR-EPSC.
Previous studies have shown that the secretion probability is regulated by the size of the readily releasable pool (RRP) of hippocampal neurons. Therefore, RRP was measured before and after treatment with SYR (100 μM). A high-frequency train (20 Hz) composed of more than 60 stimuli was prepared. 80 stimuli at 20 Hz was applied to completely remove RRP from the SC-CA1 synapse. RRP size was measured by cumulative amplitude analysis (Stevens and Williams, 2007; Wesseling and Lo, 2002).

## COc1cc(C2OCC3C(c4cc(OC)c(O)c(OC)c4)OCC23)cc(OC)c1O (stereo not drawn) [SYR, syringaresinol]
CA1 neurons [1]; SYR 100 μM applied extracellularly
  membrane potential of CA1 neurons: Significant hyperpolarization
CA1 neurons [1]; SYR 100 μM in the pipette solution
  resting membrane potential: did not affect resting membrane potential
Hippocampal CA1 region
  amplitude of first epilepsy pathological excitation wave (first PS): decreased
  area of the epilepsy pathological fEPSP (population spike): decreased
  epilepsy pathological excitation wave: significantly inhibited
  slope of fEPSP in epilepsy-induced hippocampal slice: rapidly reduced
CA1 neurons [2]
  mEPSC amplitude: did not change
  mEPSC frequency: did not change
[3]; 100 ms interval
  ratio of IPSC amplitude induced by paired-pulse stimulation (PPR): did not change
[3]; in presence of NBQX and AP-5
  eIPSC amplitude (first and second): had no effect on eIPSC
Open field test
  activity of the mouse as fraction of control (movement distance): ¼
[4]
  NMDAR-EPSC induced by paired-pulse stimulation: significantly inhibited
[5]; 100 μM, AP-5 and picrotoxin present
  AMPAR-EPSC: inhibited
[5]; fixed potential of −70 mV, AP-5 and picrotoxin 50 μM present
  excitatory post-synaptic current (EPSC) amplitude: significantly reduced
[5]; −70 mV
  time constant of EPSC reduction (decay): did not affect

— patent US11000501B2, “Composition for preventing or treating neurological and mental disorders, containing syringaresinol” (SEOUL NATIONAL UNIVERSITY R&DB FOUNDATION, priority 2016, dated 2021)
